Test results from US10400008B2, “Modulators of the SRC-kinase activity for preventing or treating metastatic cancer” (Cancer Research Technology Limited, priority 2013, dated 2019).

Key:
AR/Src complex = target: T1, AR/Src complex (Homo sapiens, UniProt P12931); test: EGFR/AR/Src association by immunoprecipitation in EGF-stimulated HT1080 cells; type: cell-based; settings: EGF 100 ng/ml 10 min, peptide 1 nM
T1 construct: endogenous in cells; host or cells: HT1080 human fibrosarcoma cells
Experimental: (§1) FIG. 3: Inhibition by S1 peptide of AR/Src complex, Src activation and DNA synthesis triggered by EGF in HT1080 cells. Quiescent HT1080 cells were used. The cells were left un-stimulated or stimulated for 10 min with EGF (at 100 ng/ml; Roche) in the absence or presence of S1 or Ss peptide (both at 1 nM). Casodex (at 10 μM) was used for comparison with the S1 peptide. The same concentrations of peptides and Casodex were used throughout the experiments. Upper section in A, the Western blot of HT1080 cell lysates with anti-EGFR antibody is shown. […] Lower section in A, lysates were immune-precipitated with anti EGFR Ab and proteins in immune-complexes were detected using antibodies against the indicated proteins. In B, lysates were immune-precipitated with the anti-Src MAb and Src activity in immune-complexes was assayed using enolase as a substrate. In C, cells on coverslips were left untreated or treated for 18 h with the indicated compounds. After in vivo pulse with BrdU (100 μM; Sigma), BrdU incorporation was analyzed by IF and expressed as % of total nuclei. Mean and SEM are shown. n represents the number of experiments.
(§2) Src tyrosine kinase was immune-precipitated, detected and assayed using enolase as a substrate (15). Src, EGF-R and tubulin were detected from cell lysates using appropriate antibodies (7). AR was immune-precipitated and detected as reported (3). […]

PC-3 cells = test: PC-3 cell proliferation, WST-1; type: cell-based, human; settings: 100 pM-1 μM, WST-1 at days 3, 5, 7, 9; statistically significant with all doses above 100 pM
Experimental: We have studied the effects of Val201 on cell proliferation of the ER positive human prostate cancer cell line PC-3 in vitro and growth and metastatis in vivo in an orthotopic xenograft model. The proliferation effects were studied for 100 pM, 1 nM, 10 nM, 100 nM and 1 μM concentrations of VAL201 by measuring WST-1 values at days 3, 5, 7 and 9. Groups with vehicle and 1 μM gemcitabine as reference compound were included in the study. The xenograft study was performed with 6-7 week-old immunodeficient BALB/c nude mice that were allocated to 6 groups (with n=15/group) according to the body weight, one group receiving vehicle and the others VAL201 at doses 0.04, 0.4, 4, 10 and 20 mg/kg. PC-3 cells in Matrigel were inoculated orthotopically into the prostate. Subcutaneous dosing was started at day 1 and continued daily for 28 days. The mice were weighed twice a week. Orthotopic tumors were measured by calliper and the prostate and the regional lymph nodes were harvested at sacrifice. Metastases in lymph nodes were determined from HE stained paraffin sections.

Src = target: T2, Src (Homo sapiens, UniProt P12931); test: Src kinase assay in immune-complexes with enolase as substrate, EGF-stimulated HT1080 cells; type: cell-based; settings: EGF 100 ng/ml 10 min, peptide 1 nM
T2 construct: lysates were immune-precipitated with the anti-Src MAb and Src activity in immune-complexes was assayed using enolase as a substrate; endogenous in cells; host or cells: HT1080 human fibrosarcoma cells
T2 sequence (P12931 whole entry): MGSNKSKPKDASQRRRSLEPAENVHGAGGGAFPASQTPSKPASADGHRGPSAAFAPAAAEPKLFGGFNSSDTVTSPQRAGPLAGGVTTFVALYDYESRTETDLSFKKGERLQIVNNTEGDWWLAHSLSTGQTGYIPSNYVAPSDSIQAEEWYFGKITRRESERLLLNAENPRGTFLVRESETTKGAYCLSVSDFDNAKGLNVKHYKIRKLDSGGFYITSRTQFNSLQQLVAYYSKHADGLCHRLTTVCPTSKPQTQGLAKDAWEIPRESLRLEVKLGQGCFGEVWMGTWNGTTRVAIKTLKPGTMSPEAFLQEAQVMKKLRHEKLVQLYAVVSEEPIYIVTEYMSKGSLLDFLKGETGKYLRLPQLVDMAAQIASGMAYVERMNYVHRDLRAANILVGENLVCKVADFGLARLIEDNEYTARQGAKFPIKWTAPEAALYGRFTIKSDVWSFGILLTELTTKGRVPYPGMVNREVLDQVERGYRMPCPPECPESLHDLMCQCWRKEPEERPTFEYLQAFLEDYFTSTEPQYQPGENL
Experimental: as §1, §2

T1 sequence (P12931 2-536 limits assumed, one chain of several): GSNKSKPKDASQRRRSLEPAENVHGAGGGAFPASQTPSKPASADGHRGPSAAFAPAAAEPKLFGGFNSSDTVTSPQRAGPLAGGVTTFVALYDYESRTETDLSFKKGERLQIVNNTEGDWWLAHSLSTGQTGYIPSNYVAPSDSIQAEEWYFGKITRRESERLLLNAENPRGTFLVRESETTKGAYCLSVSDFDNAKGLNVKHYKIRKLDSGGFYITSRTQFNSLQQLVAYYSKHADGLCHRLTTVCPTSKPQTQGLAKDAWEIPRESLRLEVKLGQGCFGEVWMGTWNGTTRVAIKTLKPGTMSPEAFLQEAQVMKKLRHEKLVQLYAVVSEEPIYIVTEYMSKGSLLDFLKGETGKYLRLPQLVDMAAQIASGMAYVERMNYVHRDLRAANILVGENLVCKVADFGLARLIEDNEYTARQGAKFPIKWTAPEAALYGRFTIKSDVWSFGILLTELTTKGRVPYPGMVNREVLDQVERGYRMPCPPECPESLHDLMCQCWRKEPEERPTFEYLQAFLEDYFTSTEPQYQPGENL

Ac-PPPHPHARIK-NH2 [VAL001]
EGF-induced AR/Src association and AR/Src association with EGF-R (AR/Src complex): abolishes
PC-3 cell proliferation (PC-3 cells): dose-dependent inhibition
EGF stimulation of Src activity (Src): almost completely abolished
